Key:
[1] = system: Nippostrongylus brasiliensis; test: In vitro assay 2: Nippostrongylus brasiliensis (NIPOBR), acetylcholine esterase readout; conditions: adult worms, read-out: activity (reduction of AChE compared to negative control); for inhibition at 10 µg/mL: 10 μg/ml (10 ppm); for inhibition at 1 µg/mL: 1 μg/ml (1 ppm)
Experimental: In Vitro Assay 2: Nippostronqylus Brasiliensis (NIPOBR)
Adult Nippostrongylus brasiliensis were washed with saline buffer containing 100 U/ml penicillin, 0.1 mg/ml streptomycin and 2.5 μg/ml amphotericin B. Test compounds were dissolved in DMSO and worms were incubated in medium in a final concentration of 10 μg/ml (10 ppm) respectively 1 μg/ml (1 ppm). An aliquot of the medium was used to determine the acetylcholine esterase activity in comparison to a negative control. The principle of measuring acetylcholine esterase as readout for anthelmintic activity was described in Rapson et al (1986) and Rapson et al (1987).

[2] = log P by HPLC on reversed phase columns (Method L0; [a] acidic, [b] neutral range)
Experimental: Calibration was done with straight-chain alkan-2-ones (with 3 to 16 carbon atoms) with known log P values (measurement of log P values using retention times with linear interpolation between successive alkanones). Lambda-max-values were determined using UV-spectra from 200 nm to 400 nm and the peak values of the chromatographic signals.

[3] = system: Litomosoides sigmodontis third-stage larvae; test: In vitro assay 7: Litomosoides sigmodontis L3 (LTMOSI), motility; conditions: 72 h, reduction of motility vs negative control, 72 h incubation
Experimental: In Vitro Assay 7: Litomosoides Siqmodontis L3 (LTMOSI)
10 Litomosoides sigmodontis third-stage larvae, which were freshly isolated from the pleural cavity of an infected rodent, were added to wells of a microtitre plate containing a nutrient medium and the test compound in DMSO. Compounds were tested in concentration-response assay in duplicate. Larvae exposed to DMSO and no test compounds were used as negative controls. Larvae were evaluated after 72 h of incubation with the compound. Efficacy was determined as the reduction of motility in comparison to the negative control. Based on the evaluation of a wide concentration range, concentration-response curves as well as ECso-values were calculated.

[4] = system: Dirofilaria immitis third-stage larvae; test: In vitro assay 4: Dirofilaria immitis (DIROIM L4), motility of larvae; conditions: 72 h
[5] = system: Dirofilaria immitis microfilariae; test: In vitro assay 3: Dirofilaria immitis microfilariae (DIROIM L1), motility; conditions: 72 h, reduction of motility vs negative control, 72 h incubation
C. elegans Slo-1a = C. elegans Slo-1a (Caenorhabditis elegans, UniProt Q95V25); test: In vitro assay 1: C. elegans Slo-1a, action at a recombinant C. elegans CHO cell line (membrane potential measurement)
C. elegans Slo-1a, sequence (Q95V25 whole entry): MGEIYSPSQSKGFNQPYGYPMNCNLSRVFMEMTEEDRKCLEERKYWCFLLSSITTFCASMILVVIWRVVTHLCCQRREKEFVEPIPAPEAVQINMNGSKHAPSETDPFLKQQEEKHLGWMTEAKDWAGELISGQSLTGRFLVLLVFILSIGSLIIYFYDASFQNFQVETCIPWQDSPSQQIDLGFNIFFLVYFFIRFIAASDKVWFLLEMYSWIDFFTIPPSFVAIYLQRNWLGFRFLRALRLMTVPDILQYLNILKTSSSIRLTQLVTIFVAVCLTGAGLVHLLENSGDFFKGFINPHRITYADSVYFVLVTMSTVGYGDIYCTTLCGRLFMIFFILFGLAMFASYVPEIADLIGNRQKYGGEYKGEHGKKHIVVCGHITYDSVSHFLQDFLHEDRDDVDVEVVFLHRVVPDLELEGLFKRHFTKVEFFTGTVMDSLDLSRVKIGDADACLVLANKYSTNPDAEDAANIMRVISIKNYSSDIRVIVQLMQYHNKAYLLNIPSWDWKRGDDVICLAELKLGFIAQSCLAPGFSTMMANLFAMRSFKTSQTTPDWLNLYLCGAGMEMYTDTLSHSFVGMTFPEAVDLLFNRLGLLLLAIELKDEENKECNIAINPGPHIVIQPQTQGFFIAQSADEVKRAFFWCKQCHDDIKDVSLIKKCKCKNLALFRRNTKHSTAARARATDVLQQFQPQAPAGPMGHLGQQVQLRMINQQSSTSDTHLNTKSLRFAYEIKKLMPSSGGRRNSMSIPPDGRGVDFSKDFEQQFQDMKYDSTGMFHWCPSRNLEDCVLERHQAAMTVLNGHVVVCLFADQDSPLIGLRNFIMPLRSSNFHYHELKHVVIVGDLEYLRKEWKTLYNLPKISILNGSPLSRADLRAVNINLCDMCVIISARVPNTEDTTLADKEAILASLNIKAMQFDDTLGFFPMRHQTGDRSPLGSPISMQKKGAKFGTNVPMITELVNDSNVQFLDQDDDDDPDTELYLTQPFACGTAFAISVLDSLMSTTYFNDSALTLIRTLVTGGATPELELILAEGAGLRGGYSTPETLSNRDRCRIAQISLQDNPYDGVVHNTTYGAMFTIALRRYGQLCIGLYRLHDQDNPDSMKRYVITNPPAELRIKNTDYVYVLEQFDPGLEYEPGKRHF

Row | Compound | inhibition at 10 µg/mL [1] [%] | chromatographic logP [2] | EC50 [3] [µg/mL] | EC50 [4] [µg/mL] | EC50 [5] [µg/mL] | EC50 (C. elegans Slo-1a) [nM] | inhibition at 1 µg/mL [1] [%]
1 | Cc1nn2c(C(C)C)c(C(=O)N[C@H]3CCOc4ccccc43)cnc2c1-c1c(F)cccc1F [Example 96] | > 80 | 4.13 | < 0.1 | < 0.1 | < 0.1 | 3.98 | –
2 | Cc1nn2c(C(C)C)c(C(=O)N[C@H]3CCc4ccccc43)cnc2c1-c1cc(Cl)c(F)c(Cl)c1 [Example 127] | > 80 | 5.91 | < 0.1 | < 0.1 | < 0.1 | 10 | –
3 | Cc1nn2c(C(C)C)c(C(=O)N[C@H]3CCCc4ccccc43)cnc2c1-c1cc(Cl)c(F)c(Cl)c1 [Example 128] | > 80 | 6.26 | < 0.1 | < 0.1 | < 0.1 | 12.6 | –
4 | Cc1nn2c(C(C)C)c(C(=O)N[C@H]3CCOc4ccccc43)cnc2c1-c1c(F)cccc1Cl [Example 130] | > 80 | 4.44 | < 0.1 | < 0.1 | < 0.1 | 3.98 | –
5 | Cc1nn2c(C(C)C)c(C(=O)N[C@H]3CCOc4ccccc43)cnc2c1-c1cccc(F)c1F [Example 136] | > 80 | 4.34 | < 0.1 | < 0.1 | < 0.1 | 6.31 | > 80
6 | Cc1nn2c(C(C)C)c(C(=O)N[C@H]3CCc4ccccc43)cnc2c1-c1cccc(F)c1F [Example 141] | > 80 | 4.6 | < 0.1 | < 0.1 | < 0.1 | 7.94 | –
7 | Cc1nn2c(C(C)C)c(C(=O)N[C@H]3CCOc4ccccc43)cnc2c1-c1cc(Cl)cc(Cl)c1 [Example 152] | > 80 | 5.84 | < 0.1 | < 1 | < 0.1 | 20 | > 80
8 | Cc1nn2c(C(C)C)c(C(=O)N[C@H]3CCOc4ccccc43)cnc2c1-c1ccc(F)c(F)c1F [Example 166] | > 80 | 4.54 | < 0.1 | < 0.1 | < 0.1 | 1.58 | –
9 | Cc1nn2c(C(C)C)c(C(=O)N[C@H]3CCOc4ccccc43)cnc2c1-c1cccc(Cl)c1Cl [Example 170] | > 80 | 4.85 | < 0.1 | < 0.1 | < 0.1 | 2 | –
10 | COc1cccc(-c2c(C)nn3c(C(C)C)c(C(=O)N[C@H]4CCOc5ccccc54)cnc23)c1F [Example 184] | > 80 | 2.84 | < 0.1 | < 0.1 | < 0.1 | 3.16 | –
11 | Cc1nn2c(C(C)C)c(C(=O)N[C@H]3CCOc4ccccc43)cnc2c1-c1ccc(F)c(Cl)c1 [Example 186] | > 80 | 5.01 | < 0.1 | < 0.1 | < 0.1 | 15.8 | –
12 | Cc1nn2c(C(C)C)c(C(=O)N[C@H]3CCOc4ccccc43)cnc2c1-c1cccc(Cl)c1F [Example 189] | > 80 | 4.72 | < 0.1 | < 0.1 | < 0.1 | 1.26 | –
13 | Cc1nn2c(C(C)C)c(C(=O)N[C@H]3CCOc4ccccc43)cnc2c1-c1cc(Cl)c(F)c(Cl)c1 [Example 194] | > 80 | 5.65 | < 0.1 | < 0.1 | < 0.1 | 12.6 | > 80
14 | Cc1nn2c(C(C)C)c(C(=O)N[C@H]3CCOc4ccccc43)cnc2c1-c1ncc(Cl)cc1Cl [Example 208] | > 80 | 4.27 | < 0.1 | < 0.1 | < 0.1 | 1.58 | > 80
15 | Cc1nn2c(C(C)C)c(C(=O)N[C@H]3CCc4ccccc43)cnc2c1-c1ncc(Cl)cc1Cl [Example 209] | > 80 | 4.51 | – | < 0.1 | < 0.1 | 1.26 | > 80
16 | Cc1nn2c(C(C)C)c(C(=O)N[C@H]3CCOc4ccccc43)cnc2c1-c1ccc(F)c(Cl)c1F [Example 213] | > 80 | 4.8 | < 0.1 | < 0.1 | < 0.1 | 1.58 | –
17 | Cc1nn2c(C(C)C)c(C(=O)N[C@H]3CCOc4ccccc43)cnc2c1-c1c(F)cc(F)cc1F [Example 236] | > 80 | 4.3 | < 0.1 | < 0.1 | < 1 | 2 | > 80
18 | COc1cc(-c2c(C)nn3c(C(C)C)c(C(=O)N[C@H]4CCOc5ccccc54)cnc23)cc(F)c1F [Example 241] | > 80 | 4.6 | < 0.1 | < 0.1 | < 1 | 6.31 | > 80
19 | Cc1nn2c(C(C)C)c(C(=O)N[C@H]3CCOc4ccccc43)cnc2c1-c1c(F)cc(Cl)cc1F [Example 246] | > 80 | 4.82 | < 0.1 | < 0.1 | < 0.1 | 6.31 | > 80
20 | Cc1nn2c(C(C)C)c(C(=O)N[C@H]3CCOc4ccccc43)cnc2c1-c1c(Cl)ccc(F)c1F [Example 258] | > 80 | 4.46 | < 0.1 | < 0.1 | < 1 | 1.58 | > 80
21 | Cc1nn2c(C(C)C)c(C(=O)N[C@H]3CCOc4ccccc43)cnc2c1-c1ccc(F)c2c1OCO2 [Example 263] | > 80 | 4.13 | – | < 0.1 | < 0.1 | 1.58 | > 80
22 | COCc1cccc(-c2c(C)nn3c(C4CC4)c(C(=O)N[C@H]4CCOc5ccccc54)cnc23)c1 [Example 451] | > 80 | 3.43 | – | – | < 1 | 7.94 | –
23 | Cc1nn2c(C(C)C)c(C(=O)N[C@H]3CCOc4ccccc43)cnc2c1-c1cccc(N2CC(F)C2)c1 [Example 459] | > 80 | 4.36 | – | – | < 1 | 10 | –
24 | Cc1nn2c(C3CC3)c(C(=O)N[C@H]3CCOc4ccccc43)cnc2c1-c1cnn(CC2CC2)c1 [Example 470] | > 80 | 2.92 | – | – | < 10 | 7.94 | –
25 | Cc1nn2c(N3CCOCC3)c(C(=O)N[C@H]3CCOc4ccccc43)cnc2c1-c1cc(Cl)cc(Cl)c1 [Example 516] | > 80 | 3.99 | – | < 0.1 | < 0.1 | 5.01 | > 80

Source: patent US11001590B2, “Pyrazolopyrimidine derivatives” (BAYER ANIMAL HEALTH GMBH, priority 2016, dated 2021)
